Measured values from patent publication US8841456B2, “1,5-naphthyridine derivative or salt thereof” (FUJIFILM Corporation, priority 2011, dated 2014).

Tests used:
human PI3Kα protein = biological target: T1, human PI3Kα protein (Homo sapiens, UniProt P42336); experiment: PI3Kα enzyme assay (ADP-Glo kinase assay); format: biochemical; conditions: IC50 class; 3 nM PI3Kα, 50 μM PIP2, 100 μM ATP; read-out: PI3Kα Inhibitory Activity
T1 construct: purchased Carna Biosciences, Inc; host or cells: Baculovirus expression system
T1 sequence (P42336 whole entry): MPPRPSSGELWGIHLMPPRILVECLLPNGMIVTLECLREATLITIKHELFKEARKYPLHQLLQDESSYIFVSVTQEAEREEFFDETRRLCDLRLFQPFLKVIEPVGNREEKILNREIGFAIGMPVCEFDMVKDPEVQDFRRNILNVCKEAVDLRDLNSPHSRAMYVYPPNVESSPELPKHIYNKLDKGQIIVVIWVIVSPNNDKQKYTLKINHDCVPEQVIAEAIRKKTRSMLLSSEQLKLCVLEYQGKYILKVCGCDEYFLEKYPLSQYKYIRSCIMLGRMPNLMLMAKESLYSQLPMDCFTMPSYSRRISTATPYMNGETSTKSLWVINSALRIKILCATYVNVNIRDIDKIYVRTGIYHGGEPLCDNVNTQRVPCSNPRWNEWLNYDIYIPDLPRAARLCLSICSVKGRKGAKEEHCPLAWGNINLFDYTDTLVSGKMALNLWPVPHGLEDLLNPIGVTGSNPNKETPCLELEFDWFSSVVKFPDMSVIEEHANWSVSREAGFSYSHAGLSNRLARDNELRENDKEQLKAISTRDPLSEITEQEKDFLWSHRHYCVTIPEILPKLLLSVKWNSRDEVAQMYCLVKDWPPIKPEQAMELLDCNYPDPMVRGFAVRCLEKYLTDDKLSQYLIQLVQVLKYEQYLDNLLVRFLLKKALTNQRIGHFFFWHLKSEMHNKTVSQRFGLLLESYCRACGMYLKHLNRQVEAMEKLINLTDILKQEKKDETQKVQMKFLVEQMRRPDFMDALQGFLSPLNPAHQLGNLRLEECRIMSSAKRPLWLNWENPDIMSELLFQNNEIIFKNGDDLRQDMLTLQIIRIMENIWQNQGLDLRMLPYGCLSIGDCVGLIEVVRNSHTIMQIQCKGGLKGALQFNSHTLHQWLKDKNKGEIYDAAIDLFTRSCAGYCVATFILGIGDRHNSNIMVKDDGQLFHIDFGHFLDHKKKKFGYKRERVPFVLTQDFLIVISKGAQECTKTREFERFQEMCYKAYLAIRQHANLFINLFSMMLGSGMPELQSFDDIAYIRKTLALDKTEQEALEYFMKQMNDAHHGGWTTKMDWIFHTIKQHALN
T1 sequence (P27986 whole entry partner): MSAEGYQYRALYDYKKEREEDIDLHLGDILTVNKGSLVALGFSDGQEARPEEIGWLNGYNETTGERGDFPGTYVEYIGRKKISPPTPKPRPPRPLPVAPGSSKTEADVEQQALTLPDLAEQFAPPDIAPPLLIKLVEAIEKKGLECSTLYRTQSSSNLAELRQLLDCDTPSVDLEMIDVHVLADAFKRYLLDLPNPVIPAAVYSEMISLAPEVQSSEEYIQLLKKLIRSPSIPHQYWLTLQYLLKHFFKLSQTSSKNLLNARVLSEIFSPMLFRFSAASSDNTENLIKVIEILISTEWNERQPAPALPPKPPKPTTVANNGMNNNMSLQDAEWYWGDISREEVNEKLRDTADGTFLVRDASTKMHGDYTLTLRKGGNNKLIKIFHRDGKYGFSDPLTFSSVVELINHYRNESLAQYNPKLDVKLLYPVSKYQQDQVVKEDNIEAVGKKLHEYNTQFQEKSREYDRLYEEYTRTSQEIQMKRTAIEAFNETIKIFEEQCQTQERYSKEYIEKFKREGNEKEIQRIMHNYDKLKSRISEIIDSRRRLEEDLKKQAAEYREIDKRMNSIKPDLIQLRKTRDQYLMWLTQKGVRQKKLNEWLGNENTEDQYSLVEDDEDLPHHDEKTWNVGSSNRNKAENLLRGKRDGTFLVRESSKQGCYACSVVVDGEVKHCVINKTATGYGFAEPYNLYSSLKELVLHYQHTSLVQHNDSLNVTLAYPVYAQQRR
Procedure, shortened: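 Baculovirus-expressed biotinylated human PI3Kα (3 nM) preincubated 15 min with compound in Tris pH 7.5, MgCl2, BSA, then reacted 60 min at 25 °C with 50 μM PIP2 and 100 μM ATP. ADP quantified by ADP-Glo luminescence; IC50 calculated.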

[1] = biological target: T2, glutathione S-transferase (GST)-fusion human ERK2 protein (Homo sapiens, UniProt P28482); experiment: ERK2 enzyme assay (LabChip mobility shift); format: biochemical; conditions: IC50 class; 2 nM ERK2, 4.25 μM FL-Peptide 8, 43 μM ATP; read-out: ERK2 Inhibitory Activity
T2 construct: purchased Carna Biosciences, Inc; host or cells: E. coli expression system
T2 sequence (P28482 whole entry, the tested form may be a part): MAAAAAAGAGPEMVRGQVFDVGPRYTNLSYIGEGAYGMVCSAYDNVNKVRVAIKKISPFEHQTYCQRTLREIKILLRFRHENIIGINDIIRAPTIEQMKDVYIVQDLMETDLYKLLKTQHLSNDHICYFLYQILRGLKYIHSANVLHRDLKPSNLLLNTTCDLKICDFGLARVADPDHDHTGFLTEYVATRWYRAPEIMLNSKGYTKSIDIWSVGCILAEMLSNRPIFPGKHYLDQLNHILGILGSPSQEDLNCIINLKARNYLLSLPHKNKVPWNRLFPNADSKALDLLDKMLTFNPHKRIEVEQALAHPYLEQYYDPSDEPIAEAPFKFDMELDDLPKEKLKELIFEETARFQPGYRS
Procedure, shortened: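 GST-tagged human ERK2 from E. coli, at 2 nM, was preincubated 15 min at room temperature with compound in Hepes pH 7.5 with MgCl2, DTT and Brij35. The reaction ran 120 min at 25 °C with 4.25 μM FL-Peptide 8 and 43 μM ATP (final). Phosphopeptide fraction was measured by mobility-shift separation to give IC50.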

SMILES | IC50 (human PI3Kα protein) [nM] | IC50 [1] [nM]
COc1ccccc1CCCCNC(=O)Nc1ccc2ncc(-c3cn[nH]c3)cc2n1 [Compound 0168] | < 100 | < 100
COc1cccc(CCCCNC(=O)Nc2ccc3ncc(-c4cn[nH]c4)cc3n2)c1 [Compound 0169] | 100 to 1000 | < 100
C[C@H](C[C@H](C)Oc1ccccc1)NC(=O)Nc1ccc2ncc(-c3cn[nH]c3)cc2n1 [Compound 0170] | 100 to 1000 | < 100
O=C(NCCCCc1ccccc1F)Nc1ccc2ncc(-c3cn[nH]c3)cc2n1 [Compound 0171] | < 100 | < 100
O=C(NCCCCc1ccc(F)cc1)Nc1ccc2ncc(-c3cn[nH]c3)cc2n1 [Compound 0172] | 100 to 1000 | < 100
COc1ccc(CCCCNC(=O)Nc2ccc3ncc(-c4cn[nH]c4)cc3n2)cc1 [Compound 0173] | 100 to 1000 | < 100
O=C(NCCCCC1OCCO1)Nc1ccc2ncc(-c3cn[nH]c3)cc2n1 [Compound 0174] | < 100 | < 100
O=C(Nc1ccc2ncc(-c3cnn(CCCN4CCOCC4)c3)cc2n1)N[C@@H]1CCN(Cc2ccccc2)C1 [Compound 0175] | 100 to 1000 | < 100
O=C(Nc1ccc2ncc(-c3cnn(CCCN4CCOCC4)c3)cc2n1)N[C@H]1CCN(Cc2ccccc2)C1 [Compound 0176] | 100 to 1000 | 100 to 1000
O=C(NCCCCN1CCCC1)Nc1ccc2ncc(-c3cn[nH]c3)cc2n1 [Compound 0177] | > 10000 | 100 to 1000
O=C(NCCCCC1CCCCC1)Nc1ccc2ncc(-c3cnn(CCCN4CCOCC4)c3)cc2n1 [Compound 0178] | 100 to 1000 | 100 to 1000
CC(CCc1ccccc1)NC(=O)Nc1ccc2ncc(-c3cnn(CCCN4CCOCC4)c3)cc2n1 (stereo not drawn) [Compound 0179] | < 100 | < 100
O=C(NCC1CCC(F)(F)CC1)Nc1ccc2ncc(-c3cnn(CCCN4CCOCC4)c3)cc2n1 [Compound 0180] | < 100 | < 100
C[C@@H](NC(=O)Nc1ccc2ncc(-c3cnn(CCCN4CCOCC4)c3)cc2n1)C1CCCCC1 [Compound 0181] | < 100 | < 100
O=C(NCCCCc1ccccc1F)Nc1ccc2ncc(-c3cnn(CCCN4CCOCC4)c3)cc2n1 [Compound 0183] | < 100 | < 100
CCCC(C)(C)NC(=O)Nc1ccc2ncc(-c3cn[nH]c3)cc2n1 [Compound 0184] | < 100 | < 100
CC(C)(C)NC(=O)Nc1ccc2ncc(-c3cnn(CCCN4CCOCC4)c3)cc2n1 [Compound 0185] | 1000 to 10000 | 100 to 1000
O=C(NCC1CC1)Nc1ccc2ncc(-c3cn[nH]c3)cc2n1 [Compound 0186] | 100 to 1000 | < 100
O=C(NCC12CC3CC(CC(C3)C1)C2)Nc1ccc2ncc(-c3cn[nH]c3)cc2n1 [Compound 0187] | 1000 to 10000 | < 100
O=C(NCC1CCC1)Nc1ccc2ncc(-c3cn[nH]c3)cc2n1 [Compound 0188] | < 100 | < 100
O=C(NCC1CCCCO1)Nc1ccc2ncc(-c3cn[nH]c3)cc2n1 (stereo not drawn) [Compound 0189] | 100 to 1000 | < 100

SMILES | IC50 (human PI3Kα protein) [nM] | IC50 [1] [nM]
O=C(NCC1CCCOC1)Nc1ccc2ncc(-c3cn[nH]c3)cc2n1 (stereo not drawn) [Compound 0190] | 100 to 1000 | < 100
O=C(NCC1CCOCC1)Nc1ccc2ncc(-c3cn[nH]c3)cc2n1 [Compound 0191] | 100 to 1000 | < 100
O=C(NC[C@H]1CCCO1)Nc1ccc2ncc(-c3cn[nH]c3)cc2n1 [Compound 0192] | 100 to 1000 | < 100
O=C(NC[C@@H]1CCCO1)Nc1ccc2ncc(-c3cn[nH]c3)cc2n1 [Compound 0193] | 100 to 1000 | < 100
CO[C@H]1CCC[C@@H]1NC(=O)Nc1ccc2ncc(-c3cn[nH]c3)cc2n1 [Compound 0194] | 100 to 1000 | < 100
CC1(NC(=O)Nc2ccc3ncc(-c4cn[nH]c4)cc3n2)CCC1 [Compound 0195] | < 100 | 100 to 1000
COCC1(NC(=O)Nc2ccc3ncc(-c4cn[nH]c4)cc3n2)CCC1 [Compound 0196] | 100 to 1000 | 100 to 1000
O=C(NCC1CCOC1)Nc1ccc2ncc(-c3cn[nH]c3)cc2n1 (stereo not drawn) [Compound 0197] | 100 to 1000 | < 100
C[C@@H](NC(=O)Nc1ccc2ncc(-c3cn[nH]c3)cc2n1)C1CCCC1 [Compound 0198] | 100 to 1000 | < 100
C[C@H](NC(=O)Nc1ccc2ncc(-c3cn[nH]c3)cc2n1)C1CCCC1 [Compound 0199] | 100 to 1000 | < 100
O=C(Nc1ccc2ncc(-c3cn[nH]c3)cc2n1)N[C@@H]1CC[C@H](CF)C1 [Compound 0200] | < 100 | < 100
O=C(NCCCN1CCOCC1)Nc1ccc2ncc(-c3cn[nH]c3)cc2n1 [Compound 0201] | 1000 to 10000 | 100 to 1000
O=C(NCCCN1CCCCC1)Nc1ccc2ncc(-c3cn[nH]c3)cc2n1 [Compound 0202] | 1000 to 10000 | 100 to 1000
O=C(NCCCCc1ccccc1)Nc1ccc2ncc(-c3cnn(CCCN4CCOCC4)c3)cc2n1 [Compound 0203] | < 100 | < 100
O=C(Nc1ccc2ncc(-c3cn[nH]c3)cc2n1)NN1CCCC1 [Compound 0204] | 100 to 1000 | 100 to 1000
O=C(Nc1ccc2ncc(C3=CCOCC3)cc2n1)NC1CCCC1 [Compound 0205] | < 100 | < 100
O=C(Nc1ccc2ncc(-c3cnn(CCCCN4C(=O)c5ccccc5C4=O)c3)cc2n1)NC1CCCC1 [Compound 0206] | < 100 | 100 to 1000
O=C(Nc1ccc2ncc(-c3cnn(CCCCN4CCOCC4)c3)cc2n1)NC1CCCC1 [Compound 0207] | < 100 | < 100
O=C(Nc1ccc2ncc(-c3cnn(CCN4CCOCC4)c3)cc2n1)NS(=O)(=O)c1ccccc1 [Compound 0208] | > 10000 | > 10000
CN(C)CCn1cc(-c2cnc3ccc(NC(=S)NC4CCCC4)nc3c2)cn1 [Compound 0209] | < 100 | < 100
CN(C)CCCn1cc(-c2cnc3ccc(NC(=O)NC4CCCC4)nc3c2)cn1 [Compound 0210] | < 100 | 100 to 1000

SMILES | IC50 (human PI3Kα protein) [nM] | IC50 [1] [nM]
CC(C)(C)OC(=O)N1CCN(CCCn2cc(-c3cnc4ccc(NC(=O)NC5CCCC5)nc4c3)cn2)CC1 [Compound 0211] | < 100 | < 100
O=C(Nc1ccc2ncc(-c3cnn(CCCN4CCNCC4)c3)cc2n1)NC1CCCC1 [Compound 0212] | < 100 | < 100
CN(C)CCn1cc(-c2cnc3ccc(NC(=S)N[C@@H]4C[C@H]5CC[C@@H]4C5)nc3c2)cn1 [Compound 0213] | 100 to 1000 | < 100
O=C(Nc1ccc2ncc(-c3cnn(C4CCNCC4)c3)cc2n1)NC1CCCC1 [Compound 0214] | < 100 | 100 to 1000
CCOC(=O)c1nn(C)cc1-c1cnc2ccc(NC(=O)NC3CCCC3)nc2c1 [Compound 0215] | < 100 | 100 to 1000
Cn1cc(-c2cnc3ccc(NC(=O)NC4CCCC4)nc3c2)c(CO)n1 [Compound 0216] | < 100 | < 100
CN(C)Cc1nn(C)cc1-c1cnc2ccc(NC(=O)NC3CCCC3)nc2c1 [Compound 0217] | < 100 | 100 to 1000
CS(=O)(=O)C1CCN(CCn2cc(-c3cnc4ccc(NC(=O)NC5CCCC5)nc4c3)cn2)CC1 [Compound 0218] | < 100 | < 100
O=C(Nc1ccc2ncc(-c3c[nH]nc3CO)cc2n1)NC1CCCC1 [Compound 0219] | < 100 | < 100
S=C(Nc1ccc2ncc(-c3cnn(CCCN4CCNCC4)c3)cc2n1)NC1CCCC1 [Compound 0220] | < 100 | < 100
CN(C)CCCn1cc(-c2cnc3ccc(NC(=S)NC4CCCC4)nc3c2)cn1 [Compound 0221] | < 100 | < 100
S=C(Nc1ccc2ncc(-c3cnn(CCN4CCNCC4)c3)cc2n1)NC1CCCC1 [Compound 0222] | < 100 | < 100
CN1CCN(CCn2cc(-c3cnc4ccc(NC(=O)NC5CCCC5)nc4c3)cn2)CC1 [Compound 0223] | < 100 | < 100
O=C(Nc1ccc2ncc(Oc3cnccn3)cc2n1)NC1CCCC1 [Compound 0224] | 100 to 1000 | 1000 to 10000
Cn1cc(-c2cc3nc(NC(=O)NC4CCCC4)ccc3nc2Cl)cn1 [Compound 0225] | > 10000 | > 10000
Cn1cc(-c2cnc3ccc(NC(=O)NC4CCCC4)nc3c2Cl)cn1 [Compound 0226] | < 100 | < 100
Cn1cc(-c2cc3nc(NC(=O)NC4CCCC4)ccc3nc2N)cn1 [Compound 0227] | < 100 | 1000 to 10000
CN1CCC(n2cc(-c3cnc4ccc(NC(=O)NC5CCCC5)nc4c3)cn2)CC1 [Compound 0228] | < 100 | < 100
CCCN1CCC(n2cc(-c3cnc4ccc(NC(=O)NC5CCCC5)nc4c3)cn2)CC1 [Compound 0229] | < 100 | 100 to 1000
CCN1CCC(n2cc(-c3cnc4ccc(NC(=O)NC5CCCC5)nc4c3)cn2)CC1 [Compound 0230] | < 100 | 100 to 1000
CC(C)N1CCC(n2cc(-c3cnc4ccc(NC(=O)NC5CCCC5)nc4c3)cn2)CC1 [Compound 0231] | < 100 | 100 to 1000
